Source: US6818667B2, “Eurotinones, and derivatives thereof, processes for preparing them, and their use” (Aventis Pharma Deutschland GmbH, priority 2001, dated 2004)
pIC50: −log10 of the molar value.

target: KDR kinase (VEGF receptor) (Homo sapiens, UniProt P35968); assay: KDR kinase activity assay (FlashPlate, 33P-ATP phosphorylation of peptide substrate PLCγ1); assay type: biochemical; details: purified enzyme, 5 μM cold ATP, pH 7.4, RT 1 h
Protocol: The tyrosine kinase receptor KDR is the test target. KDR plays a key role in the growth of endothelium and in angiogenesis and is consequently also involved in the development of tumors. KDR is consequently an important therapeutic target molecule for cancer diseases and other proliferative diseases. In the test, the activity of the KDR kinase is measured on the basis of the phosphorylation of a specific peptide substrate.
The KDR kinase was determined using purified enzyme in 384-well microtiter plates (Coated FlashPlates, NEN Life Science). The enzyme activities were determined by means of phosphorylating a specific peptide substrate. A previously prepared series of dilutions of the eurotinones having concentrations of 100, 50, 25, 12.5, 6.25, 3.125, 1.5625, 0.7813, 0.3906, 0.195, 0.094, 0.047 and 0 μM were pipetted, in the corresponding order, into the experimental assays. The reaction mixture (radioactively labeled ATP, buffer solution at pH 7.4 and enzyme solutions) was then added and the whole was incubated at RT for 1 h.
Enzyme: KDR kinase (VEGF receptor)
50 mM MOPS, pH7.4, 10 mM MgCl2, 2 mM DTT, 2.5 mM EDTA,
ATP solution: 25μCi of ^33P-γ-ATP/ml and 12.5 μM cold ATP
KDR enzyme solution: 3.5 μg/ml in kinase buffer
384-well FlashPlates were coated, at […] and overnight, with 60 μl (1.2 μg/well) of the peptide substrate and then washed 3×with in each case 80 μl of PBS. The plates which had been coated in this way can be stored for a relatively short time at 4° C. and for a longer period at −20° C. […]
The plates were subsequently washed three times with 75 μl of washing solution in each case and the radioactivity is measured over 30 seconds in a MicroBeta counter (Wallac). […]
The activity of the KDR kinase was measured by way of the incorporation of radioactive phosphate from ATP into the substrate, and the inhibitory effect of the eurotinone (IC50) was calculated from this incorporation.
The inhibition was calculated as: […]

Sequence of KDR kinase (VEGF receptor) (P35968 20-1356): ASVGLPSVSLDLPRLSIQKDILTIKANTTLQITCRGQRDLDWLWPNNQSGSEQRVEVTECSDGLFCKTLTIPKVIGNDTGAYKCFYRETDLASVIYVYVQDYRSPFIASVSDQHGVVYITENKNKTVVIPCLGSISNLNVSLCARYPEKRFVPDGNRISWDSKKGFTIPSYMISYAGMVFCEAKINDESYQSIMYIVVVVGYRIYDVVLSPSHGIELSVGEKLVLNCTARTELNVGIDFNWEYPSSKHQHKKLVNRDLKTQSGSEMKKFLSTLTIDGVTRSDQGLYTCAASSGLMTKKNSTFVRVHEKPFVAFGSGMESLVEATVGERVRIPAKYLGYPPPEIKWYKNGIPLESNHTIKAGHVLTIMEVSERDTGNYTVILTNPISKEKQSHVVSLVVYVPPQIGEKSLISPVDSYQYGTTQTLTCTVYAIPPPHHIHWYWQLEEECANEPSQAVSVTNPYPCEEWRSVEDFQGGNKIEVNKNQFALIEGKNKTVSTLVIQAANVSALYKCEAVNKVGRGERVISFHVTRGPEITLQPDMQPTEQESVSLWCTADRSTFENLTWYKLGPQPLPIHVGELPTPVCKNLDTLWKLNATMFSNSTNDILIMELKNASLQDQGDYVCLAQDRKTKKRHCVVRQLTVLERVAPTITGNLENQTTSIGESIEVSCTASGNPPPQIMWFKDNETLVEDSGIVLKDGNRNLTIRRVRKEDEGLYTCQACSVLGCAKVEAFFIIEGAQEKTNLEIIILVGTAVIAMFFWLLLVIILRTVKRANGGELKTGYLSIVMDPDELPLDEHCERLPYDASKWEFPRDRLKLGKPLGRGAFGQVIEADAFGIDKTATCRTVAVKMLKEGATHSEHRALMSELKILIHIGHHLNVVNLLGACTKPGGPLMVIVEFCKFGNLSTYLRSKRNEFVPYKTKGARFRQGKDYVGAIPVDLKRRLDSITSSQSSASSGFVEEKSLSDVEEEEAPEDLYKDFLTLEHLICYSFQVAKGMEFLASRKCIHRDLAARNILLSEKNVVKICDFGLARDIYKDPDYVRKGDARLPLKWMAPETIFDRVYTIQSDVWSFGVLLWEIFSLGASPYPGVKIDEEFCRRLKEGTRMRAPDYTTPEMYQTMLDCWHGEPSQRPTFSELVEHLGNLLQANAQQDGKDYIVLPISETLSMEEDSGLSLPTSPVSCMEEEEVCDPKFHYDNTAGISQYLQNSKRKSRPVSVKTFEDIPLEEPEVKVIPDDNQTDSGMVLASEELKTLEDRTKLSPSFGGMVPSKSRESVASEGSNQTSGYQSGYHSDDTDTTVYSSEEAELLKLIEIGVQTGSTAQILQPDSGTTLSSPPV

`Cc1cc(O)c2c(c1O)Cc1cc(O)cc(O)c1OC2=O` [eurotinone (compound 1), eurotinone] and `COc1cc(O)cc2c1OC(=O)c1c(O)cc(C)c(O)c1C2` [2-methyleurotinone (compound 3), 2-methyleurotinone] are within 0.2 log units of each other in pIC50: 4.66 for the first, 4.74 for the second.

Molecule `COc1cc(O)cc2c1OC(=O)c1c(OC)cc(C)c(O)c1C2` [2,12-dimethyleurotinone (compound 2), 2,12-dimethyleurotinone] has a pIC50 of 3.81.
